From BigSolDB 2.1

O=C(O)Cc1c[nH]c2ccccc12
solubility (mole fraction)
Conditions | 278.15 K | 283.15 K | 288.15 K | 293.15 K | 298.15 K | 303.15 K | 308.15 K | 313.15 K | 318.15 K | 323.15 K
in 1,4-dioxane | – | – | 2.06e-05 | 2.2e-05 | 2.35e-05 | 2.51e-05 | 2.69e-05 | 2.89e-05 | 3.12e-05 | 3.38e-05
in DMF | 2.98e-05 | 3.12e-05 | 3.29e-05 | 3.47e-05 | 3.67e-05 | 3.9e-05 | 4.16e-05 | 4.45e-05 | 4.74e-05 | 5.07e-05
in DMSO | – | – | – | 3.73e-05 | 3.95e-05 | 4.2e-05 | 4.45e-05 | 4.77e-05 | 5.12e-05 | 5.48e-05
in acetone | 2.49e-05 | 2.6e-05 | 2.73e-05 | 2.89e-05 | 3.07e-05 | 3.26e-05 | 3.49e-05 | 3.73e-05 | 3.98e-05 | 4.25e-05
in acetonitrile | 6.51e-06 | 6.98e-06 | 7.47e-06 | 8.03e-06 | 8.68e-06 | 9.36e-06 | 1.01e-05 | 1.1e-05 | 1.2e-05 | 1.3e-05
in chloroform | 2.88e-06 | 2.99e-06 | 3.11e-06 | 3.29e-06 | 3.48e-06 | 3.62e-06 | 3.88e-06 | 4.07e-06 | 4.34e-06 | 4.61e-06
in ethanol | 1.17e-05 | 1.25e-05 | 1.35e-05 | 1.47e-05 | 1.6e-05 | 1.73e-05 | 1.86e-05 | 2.03e-05 | 2.22e-05 | 2.41e-05
in ethyl acetate | 3.44e-05 | 3.64e-05 | 3.85e-05 | 4.09e-05 | 4.32e-05 | 4.58e-05 | 4.85e-05 | 5.13e-05 | 5.43e-05 | 5.76e-05
in isopropanol | 2.15e-05 | 2.27e-05 | 2.41e-05 | 2.56e-05 | 2.71e-05 | 2.88e-05 | 3.1e-05 | 3.34e-05 | 3.58e-05 | 3.88e-05
in methanol | 8.95e-06 | 9.76e-06 | 1.05e-05 | 1.17e-05 | 1.27e-05 | 1.38e-05 | 1.53e-05 | 1.67e-05 | 1.83e-05 | 1.99e-05
in n-butanol | 2.78e-05 | 2.9e-05 | 3.04e-05 | 3.2e-05 | 3.39e-05 | 3.6e-05 | 3.83e-05 | 4.09e-05 | 4.34e-05 | 4.65e-05
in n-propanol | 1.45e-05 | 1.54e-05 | 1.65e-05 | 1.8e-05 | 1.93e-05 | 2.08e-05 | 2.24e-05 | 2.42e-05 | 2.62e-05 | 2.85e-05
